For orientation: mortality means the percentage killed.

We go through seven compounds from patent US8633134B2, “Substituted amidine compounds for combating animal pests” (priority 2008, dated 2014).

Holding throughout (assay type): in vivo
Data set [1] concerns Cotton Aphid (Aphis gossypii). The data set is described as follows: Cotton aphid foliar spray test. As to conditions: 120 h, after 5 days, in comparison with untreated controls. An excerpt:
(§1) The active compounds were formulated in cyclohexanone as a 10,000 ppm solution supplied in tubes. The tubes were inserted into an automated electrostatic sprayer equipped with an atomizing nozzle and they served as stock solutions for which lower dilutions were made in 50% acetone:50% water (v/v). A nonionic surfactant (Kinetic®) was included in the solution at a volume of 0.01% (v/v).
Cotton plants at the cotyledon stage were infested with aphids prior to treatment by placing a heavily infested leaf from the main aphid colony on top of each cotyledon. Aphids were allowed to transfer overnight to accomplish an infestation of 80-100 aphids per plant and the host leaf was removed. The infested plants were then sprayed by an automated electrostatic plant sprayer equipped with an atomizing spray nozzle. The plants were dried in the sprayer fume hood, removed from the sprayer, and then maintained in a growth room under fluorescent lighting in a 24-hr photoperiod at 25° C. and 20-40% relative humidity. Aphid mortality on the treated plants, relative to mortality on untreated control plants, was determined after 5 days.

In data set [2] the test system is Silverleaf Whitefly (Bemisia argentifolii). The experiment in a line: Silverleaf whitefly cotton plant spray test. Particulars: 72 h, 3 days after treatment, in comparison with untreated controls.
Text: as §1
Cotton plants at the cotyledon stage (one plant per pot) were sprayed by an automated electrostatic plant sprayer equipped with an atomizing spray nozzle. The plants were dried in the sprayer fume hood and then removed from the sprayer. Each pot was placed into a plastic cup and about 10 to 12 whitefly adults (approximately 3-5 days old) were introduced. The insects were collected using an aspirator and a nontoxic Tygon® tubing connected to a barrier pipette tip. The tip, containing the collected insects, was then gently inserted into the soil containing the treated plant, allowing insects to crawl out of the tip to reach the foliage for feeding. Cups were covered with a reusable screened lid. Test plants were maintained in a growth room at about 25° C. and about 20-40% relative humidity for 3 days, avoiding direct exposure to fluorescent light (24 hour photoperiod) to prevent trapping of heat inside the cup. Mortality was assessed 3 days after treatment, compared to untreated control plants.

The subject of data set [3] is Vetch Aphid (Megoura viciae). The data set is described as follows: Vetch aphid leaf disk microtiter plate test. Particulars: foliar, 120 h. The procedure: For evaluating control of vetch aphid (Megoura viciae) through contact or systemic means the test unit consisted of 24-well-microtiter plates containing broad bean leaf disks.
The compounds were formulated using a solution containing 75% v/v water and 25% v/v DMSO. Different concentrations of formulated compounds were sprayed onto the leaf disks at 2.5 μl, using a custom built micro atomizer, at two replications. After application, the leaf disks were air-dried and 5-8 adult aphids placed on the leaf disks inside the microtiter plate wells. The aphids were then allowed to suck on the treated leaf disks and incubated at about 23±1° C. and about 50±5% relative humidity for 5 days. Aphid mortality and fecundity was then visually assessed.

For data set [4], the system named is Boll Weevil (Anthonomus grandis). The experiment in a line: Boll weevil microtiter plate diet test. Particulars: 120 h. Here is the method:
For evaluating control of boll weevil (Anthonomus grandis) the test unit consisted of 24-well-microtiter plates containing an insect diet and 20-30 A. grandis eggs.
The compounds were formulated using a solution containing 75% v/v water and 25% v/v DMSO. Different concentrations of formulated compounds were sprayed onto the insect diet at 20 μl, using a custom built micro atomizer, at two replications. After application, microtiter plates were incubated at about 23±1° C. and about 50±5% relative humidity for 5 days. Egg and larval mortality was then visually assessed.

Data set [5] deals with Mediterranean Fruitfly (Ceratitis capitata). The data set is described as follows: Mediterranean fruitfly microtiter plate diet test. Particulars: 120 h. Here is the method:
For evaluating control of Mediterranean fruitfly (Ceratitis capitata) the test unit consisted of microtiter plates containing an insect diet and 50-80 C. capitata eggs. The compounds were formulated using a solution containing 75% v/v water and 25% v/v DMSO. Different concentrations of formulated compounds were sprayed onto the insect diet at 5 μl, using a custom built micro atomizer, at two replications.
After application, microtiter plates were incubated at about 28±1° C. and about 80±5% relative humidity for 5 days. Egg and larval mortality was then visually assessed.

Data set [6] relates to Diamond Back Moth (Plutella xylostella). The data set is described as follows: Diamond back moth leaf dip test. As to conditions: foliar, 120 h. The procedure:
(§2) The active compound is dissolved at the desired concentration in a mixture of 1:1 (vol:vol) distilled water:acteon. The test solution is prepared at the day of use and in general at concentrations of […].
Leaves of Chinese cabbage were dipped in test solution and air-dried. Treated leaves were placed in petri dished lined with moist filter paper. Mortality was recorded 24, 72, and 120 hours after treatment.

Data set [7] has as its system yellowfever mosquito larvae (Aedes aegypti). The data set is described as follows: Larval mosquito water treatment assay. Particulars: 120 h, 5 DAT (days after treatment), first tier test, in comparison with untreated controls. The procedure: The assay was conducted in 6-well polystyrene plates using one plate per treatment rate. Stock solutions were prepared at 100 and 1000 ppm. Screen rates were at 1 and 10 ppm. Distilled water was added to each well, control wells were treated with acetone. Temephos (Abate technical) was used as the standard at 0.1 ppm. Ten late thirdinstar yellowfever mosquito larvae (Aedes aegypti) in water were added to each well. One drop of liver powder solution (6 g in 100 ml distilled water) was added to each well as a food source daily. Plates were maintained at 22-25° C. and 25-50% RH (relative humidity) and observed daily for dead larvae and pupae at 1, 2, 3, and 5 days after treatment. Dead larvae and all pupae were removed daily. Mortality was defined as an insect incapable of coordinated movement when agitated.

Data set [8] deals with Orchid Thrips (Dichromothrips corbetti). The experiment in a line: Orchid thrips floral-immersion test. As to conditions: 96 h. The procedure: Dichromothrips corbetti adults used for bioassay are obtained from a colony maintained continuously under laboratory conditions. For testing purposes, the test compound is diluted to a concentration of 300 ppm (wt compound: vol diluent) in a 1:1 mixture of acetone:water (vol:vol), plus 0.01% vol/vol Kinetic® surfactant.
Thrips potency of each compound is evaluated by using a floral-immersion technique. Plastic petri dishes are used as test arenas. All petals of individual, intact orchid flowers are dipped into treatment solution and allowed to dry. Treated flowers are placed into individual petri dishes along with 10-15 adult thrips. The petri dishes are then covered with lids. All test arenas are held under continuous light and a temperature of about 28° C. for duration of the assay. After 4 days, the numbers of live thrips are counted on each flower, and along inner walls of each petri dish. The level of thrips mortality is extrapolated from pre-treatment thrips numbers.

Data set [9] has as its system Southern Armyworm (Spodoptera eridania). The data set is described as follows: Southern armyworm lima bean foliar spray test. As to conditions: 96 h. The procedure: as §1
(§3) Lima bean plants (variety Sieva) were grown 2 plants to a pot and selected for treatment at the 1st true leaf stage. Test solutions were sprayed onto the foliage by an automated electrostatic plant sprayer equipped with an atomizing spray nozzle. The plants were dried in the sprayer fume hood and then removed from the sprayer. Each pot was placed into perforated plastic bags with a zip closure. About 10 to 11 armyworm larvae were placed into the bag and the bags zipped closed. Test plants were maintained in a growth room at about 25° C. and about 20-40% relative humidity for 4 days, avoiding direct exposure to fluorescent light (24 hour photoperiod) to prevent trapping of heat inside the bags. Mortality and reduced feeding were assessed 4 days after treatment, compared to untreated control plants.

Data set [10] concerns Tobacco Budworm (Heliothis virescens). The experiment in a line: Tobacco budworm cotton plant foliar spray test. As to conditions: 96 h. The procedure:
as §1
as §3, with “Cotton” for “Lima bean”, “plants” for “plants (variety Sieva)”, “cotyledon” for “1st true leaf”, “budworm” for “armyworm”

Data set [11] relates to Western Flower Thrips (Frankliniella occidentalis). The data set is described as follows: Western flower thrips glass vial / leaf disc test. As to conditions: 300 ppm; 2 DAT; in comparison with untreated controls. The procedure: Serial dilutions of each technical grade AI were made in pure acetone. 0.5 ml of the treatment solution was deposited into the bottom of a glass vial (scintillation vial). The cap was screwed back onto the vial and inverted for about five seconds. The cap was subsequently removed and the vial laid on its side and rolled constantly, on a hot dog roller, until all the acetone had flashed off and the inner surface of the vial was dry. Cotton leave discs were also dipped simultaneously into the treatment solutions and allowed to dry. After the vials were dried, the leave discs are placed into the vials to serve as a food/water source for the thrips. Each treatment was replicated 5-fold.
Western flower thrips were aspirated into the vials, approximately 5 larvae or adults/vial. Following treatment application the vials were held in a holding room under fluorescent light and constant 26° C. Thrips mortality was assessed at 2 DAT (days after treatment), counting all thrips both dead and alive.

Data set [12] relates to Cowpea Aphid (Aphis craccivora). The experiment in a line: Cowpea aphid spray test on potted cowpea plants. Particulars: population reduction assessed after 24, 72, and 120 hours, in comparison with untreated controls. The procedure: as §2
Potted cowpea plants colonized with approximately 100-150 aphids of various stages were sprayed after the pest population has been recorded. Population reduction was assessed after 24, 72, and 120 hours.

Regarding `CN=C(NO)c1ccc(C2=NOC(c3cc(Cl)cc(Cl)c3)(C(F)(F)F)C2)cc1C` (stereo not shown) [Compound 1-1, 4-[5-(3,5-Dichloro-phenyl)-5-trifluoromethyl-4,5-dihydro-isoxazol-3-yl]-N-hydroxy-2,N′-dimethyl-benzamidine], the mortality at 300 ppm in data set [1], in [2], in [6], in [8] and in data set [9] was at least 75% each time. Moreover, the mortality at 2500 ppm in data set [3], in data set [4], in data set [5] and in data set [10] was at least 75% throughout. The same compound returned a mortality at 1 ppm in data set [7] of at least 75%.

Turning to `Cc1cc(C2=NOC(c3cc(Cl)cc(Cl)c3)(C(F)(F)F)C2)ccc1C(=NO)N(C)C` (stereo not shown) [Compound 1-2], the mortality entry in [11] is given as “at least 75%”.

Turning to `Cc1cc(C2=NOC(c3cc(Cl)cc(Cl)c3)(C(F)(F)F)C2)ccc1C(=NCC(F)(F)F)NC(=O)CO` (stereo not shown) [Compound 1-7, 4-[5-(3,5-Dichloro-phenyl)-5-trifluoromethyl-4,5-dihydro-isoxazol-3-yl]-N-hydroxyacetyl-2-methyl-N′-(2,2,2-trifluoro-ethyl)-benzamidine], the mortality at 2500 ppm in data set [4], in data set [5] and in data set [10] was at least 75% in each case. Besides, the mortality at 300 ppm in data set [6], in data set [8] and in [9] was at least 75% throughout.

In the case of `Cc1cc(C2=NOC(c3cc(Cl)cc(Cl)c3)(C(F)(F)F)C2)ccc1C(=NCc1ccccn1)NO` (stereo not shown) [Compound 1-8, 4-[5-(3,5-Dichloro-phenyl)-5-trifluoromethyl-4,5-dihydro-isoxazol-3-yl]-N-hydroxy-2-methyl-N′-pyridin-2-ylmethyl-benzamidine], the mortality at 300 ppm in [1], in data set [6], in data set [8], in [9] and in data set [12] was at least 75% throughout. For the same compound, the mortality at 2500 ppm in data set [3], in [4], in data set [5] and in [10] was at least 75% in each case.

For `CC(=O)N(Cc1ccccn1)C(C(=O)C=NO)c1ccc(C2=NOC(c3cc(Cl)cc(Cl)c3)(C(F)(F)F)C2)cc1C` (stereo not shown) [Compound 1-10, N-{{4-[5-(3,5-dichloro-phenyl)-5-trifluoromethyl-4,5-dihydro-isoxazol-3-yl]-2-methyl-phenyl}-hydroxyiminoacetyl-methyl}-N-pyridin-2-ylmethyl-acetamide], the mortality at 2500 ppm in data set [3], in data set [4], in data set [5] and in data set [10] was at least 75% throughout. In addition, the mortality at 300 ppm in [6], in data set [8], in data set [9] and in data set [12] was at least 75% each time.

As to `Cc1nc(-c2ccc(C3=NOC(c4cc(Cl)cc(Cl)c4)(C(F)(F)F)C3)cc2C)no1` (stereo not shown) [Compound 9-2, 3-{4-[5-(3,5-Dichloro-phenyl)-5-trifluoromethyl-4,5-dihydro-isoxazol-3-yl]-2-methyl-phenyl}-5-methyl-[1,2,4]oxadiazole], the mortality at 2500 ppm in data set [4], in [5] and in data set [10] was at least 75% throughout. Besides, the mortality at 300 ppm in [6] and in data set [9] was at least 75% throughout.

`Cc1nc(-c2ccc(C3=NOC(c4cc(Cl)cc(Cl)c4)(C(F)(F)F)C3)cc2CC(F)(F)F)no1` (stereo not shown) [Compound 9-4, 3-{4-[5-(3,5-Dichloro-phenyl)-5-trifluoromethyl-4,5-dihydro-isoxazol-3-yl]-2-trifluoroethyl-phenyl}-5-methyl-[1,2,4]oxadiazole]: the mortality at 2500 ppm in data set [4], in data set [5] and in data set [10] was at least 75% each time. In addition, the mortality at 300 ppm in data set [9] was at least 75%.
